The source made the active and inactive calls. The rule behind the calls is not given here.
Tests used:
[1] = molecular target: T1, Translation initiation factor IF-3 (Escherichia coli K-12) (UniProt P0A707); assay: Inhibition of Escherichia coli XL1-Blue IF3 binding to 30S subunit at 100 uM in presence of 8.2 mm Mg2+
T1 sequence (whole entry): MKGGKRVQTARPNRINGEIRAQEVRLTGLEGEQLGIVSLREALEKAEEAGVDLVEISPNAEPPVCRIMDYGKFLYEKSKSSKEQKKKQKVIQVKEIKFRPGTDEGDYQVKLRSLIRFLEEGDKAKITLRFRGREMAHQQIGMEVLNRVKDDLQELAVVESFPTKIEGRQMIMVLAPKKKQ

[2] = test system: Escherichia coli; assay: Association of ribosome subunits into 70S ribosome of Escherichia coli MRE600 assessed above 20 uM in the presence of 1 mM Mg2+; assay type: functional, organism-based
[3] = molecular target: T1, Translation initiation factor IF-3 (Escherichia coli K-12); assay: Inhibition of Escherichia coli XL1-Blue IF3 antiassociation activity at 0.1 uM in the presence of 8.2 mM Mg2+
[4] = test system: Escherichia coli; assay: Association of ribosome subunits into 70S ribosome of Escherichia coli MRE600 at 0.1 mM in presence of 4 mM Mg2+; assay type: functional
[5] = test system: Escherichia coli; assay: Association of ribosome subunits into 70S ribosome of Escherichia coli MRE600 in presence of 6 mM Mg2+; assay type: functional
[6] = test system: Escherichia coli; assay: Association of ribosome subunits into 70S ribosome of Escherichia coli MRE600 in presence of 4 mM Mg2+; assay type: functional
[7] = test system: Escherichia coli; assay: Association of ribosome subunits into 70S ribosome of Escherichia coli MRE600 assessed upto 20 uM in the presence of 1 mM Mg2+; assay type: functional

## NC[C@@H]1O[C@H](O[C@H]2[C@@H](O)[C@H](O[C@@H]3[C@@H](O)[C@H](N)C[C@H](N)[C@H]3O[C@H]3O[C@H](CO)[C@@H](O)[C@H](O)[C@H]3N)O[C@@H]2CO)[C@H](N)[C@@H](O)[C@@H]1O [PAROMOMYCIN]
[1]
  Activity: inactive
[2]
  Activity: inactive
[3]
  Activity: Active
[4]
  Activity: 70%
[5]
  Activity: 55%
[6]
  Activity: 40%
[7]
  Activity: 50%

From ChEMBL document CHEMBL1142166, “Inhibition of antiassociation activity of translation initiation factor 3 by paromomycin” (2007)
